Assay results from US20250269046A1, “CELLULAR UPTAKE OF LARGE BIOMOLECULES ENABLED BY CELL-SURFACE-REACTIVE CELL-PENETRATING PEPTIDE ADDITIVES” (FORSCHUNGSVERBUND BERLIN E.V., priority 2021, published 2025).
* marks the point of attachment. Maleimidoacetyl = O=C1C=CC(=O)N1CC(=O)*; AEEA = NCCOCCOCC(=O)O

Experiments:
Format in all cases: cell-based
HeLa Kyoto cells = test: Cellular uptake of CPP-bearing cargoes with or without unbound CPP additive, confocal microscopy; conditions: 1 μM, 1 hour in cell culture medium, 4 and 37° C.
Description: To evaluate the concentration, temperature and cargo-size dependency of added arginine-rich peptides to mediate cytosolic delivery, the inventors chose three distinct cargoes to transport: the organic fluorophore Tetramethylrhodamine (TAMRA, ˜450 Da), the camelid-derived anti-GFP nanobody GBP1 (˜14 kDa) and the fluorescent protein mCherry with a nuclear localization signal (NLS-mCherry, ˜28 kDa). […] We then applied all of the synthesized cargoes to HeLa Kyoto cells (expressing nuclear GFP-PCNA (Leonhardt, H. et al. Dynamics of DNA replication factories in living cells. J Cell Biol 149, 271-280, doi:10.1083/jcb.149.2.271 (2000). Chagin, V. O. et al. 4D Visualization of replication foci in mammalian cells corresponding to individual replicons. Nat Commun 7, 11231, doi:10.1038/ncomms11231 (2016)) as antigen for the nanobody), at both 37 and 4° C.
For microscopy experiments, 20′000 cells (10′000 in the case of the GFP-PCNA HeLa Kyoto cell line^7) were seeded into the wells of a 96-well glass bottom plate. The cells were left to adhere and grow for 24 hours at 37° C. with 5% CO2. For 37° C. experiments, the cells were washed once with DMEM before addition of the protein samples in DMEM. The cells were incubated for 1 hour at 37° C. The cells were then washed three times with DMEM with 10% fetal bovine serum (FBS). Cells were generally imaged live with incubation at 37° C. and 5% CO2. For the quantitative microscopy experiments, the cells were fixed using 4% PFA in PBS for 30 minutes at room temperature after washing.
For 4° C. experiments, the cells were pre-chilled at 4° C. for 1 hour. The cells were then washed with cold DMEM and the proteins were added in cold DMEM to the cells. The cells were incubated at 4° C. for 1 hour. Afterwards, the cells were washed thrice with cold DMEM with 10% FBS, before fixation with 4% PFA in PBS for 30 minutes at room temperature.
Confocal microscopy images were acquired on a Nikon-CSU spinning disc microscope with an CSU—X1 (Andor) and a live cell incubation chamber (OKOlab).

HeLa CCL-2 cells = test: Cellular uptake of Atto488-labelled IgG antibody with TNB-R10; conditions: 500 nM
Method: Antibodies are exceptionally useful proteins in molecular biology and pharmacology, targeting most of the human proteome. […] Some methods to deliver full length antibodies into cells already exist, although they mostly rely on endosomal escape (Erazo-Oliveras, A. et al. Protein delivery into live cells by incubation with an endosomolytic agent. Nat Methods 11, 861-867, doi:10.1038/nmeth.2998 (2014). Akishiba, M. et al. Cytosolic antibody delivery by lipid-sensitive endosomolytic peptide. Nature Chemistry, doi:10.1038/nchem.2779 (2017)). To test whether it is possible to deliver a full-length IgG antibody into cells at 4° C., the inventors first used the fluorescently labeled therapeutic antibody Brentuximab. Thiolation was performed with 2-iminothiolane (Jue, R., Lambert, J. M., Pierce, L. R. & Traut, R. R. Addition of sulfhydryl groups to Escherichia coli ribosomes by protein modification with 2-iminothiolane (methyl 4-mercaptobutyrimidate). Biochemistry 17, 5399-5406, doi:10.1021/bi00618a013 (1978)). As before, by addition of peptide 5, the antibody can be modified with the cell-penetrating peptide via a disulfide bond, while the excess cell-penetrating peptide should simultaneously aid in the cellular uptake (FIG. 5a).
A list of antibodies can be found in table 2. Antibodies were used at a 0.5 mg/mL concentration ([…]). The anti-GFP antibody was purchased as a fluorophore conjugate. The Brentuximab and anti-TOMM20 antibody were first labelled fluorescently using 8 equivalents of NHS-Atto488 (Atto-Tec GmbH) for 1 hour at room temperature before purification via gel filtration on a superpose 6 column. All antibodies were then modified with 25 equivalents of Traut's reagent (2-Iminothiolane) for 1 hour at room temperature. Excess reagent was removed using a desalting column. Then, 20 equivalents of TNB-R10 were added immediately and the antibodies were incubated in the fridge until use. The antibodies were diluted to 500 nM in DMEM before cell experiments.

HeLa cells = test: Delivery of NLS-mCherry-R10 with hydrophobic CPP additives, spinning disk microscopy
Method: Experimental Procedure: HeLa cells seeded onto 96-well glass-bottom plates were treated with 5 μM or 1 μM Mal-PEG2-R10 or Mal-PEG2-R10-ILFF, followed by the addition of NLS-mCherry-R10 (final concentration=5 μM or 2.5 μM). The treated cells were incubated for 1 h at 37° C. with 5% CO2. After incubation, the cells were washed with phosphate buffered saline (PBS). The nucleus was counterstained using Hoechst 33342. Imaging was performed using Nikon-CSU spinning disk microscopy. Scale bars=20 μm. […] This may result from interaction of hydrophobic amino acid (such as, e.g., Leu, Ile, Phe, and Trp) moieties on the CPP additive with the membrane. Insertion of the side chains between membrane lipids may influence the local packing state of the membrane resulting in loose packing areas where CPP-cargoes could enter more efficiently.
Experimental Procedure: The experiments were carried out with Mal-PEG2-R10-fluorous tag, and Mal-PEG2-R10 as reference. The sequence of Mal-PEG2-R10 is described in Example 6. HeLa cells seeded onto 96-well glass-bottom plates were treated with 2.5 or 5 μM of Mal-PEG2-R10 or 2.5 μM or Mal-PEG2-R10-fluorous tag, followed by the addition of NLS-mCherry-R10 (final concentration=5 μM). The treated cells were incubated for 1 h at 37° C. with 5% CO2. After incubation, the cells were washed with phosphate buffered saline (PBS). The nucleus was counterstained using Hoechst 33342. Imaging was performed using Nikon-CSU spinning disk microscopy. Scale bars=20 μm.

[1] = 2.5 μM additive, 5 μM NLS-mCherry-R10, 1 h 37° C.

Compound: CN(C)c1ccc2c(-c3ccc(C(=O)N[C@H]4CCCCNC(=O)CC[C@@H](C(N)=O)NC(=O)[C@@H](CCCNC(=N)N)NC(=O)[C@H](CCCNC(=N)N)NC(=O)[C@@H](CCCNC(=N)N)NC(=O)[C@H](CCCNC(=N)N)NC(=O)[C@@H](CCCNC(=N)N)NC(=O)[C@H](CCCNC(=N)N)NC(=O)[C@@H](CCCNC(=N)N)NC(=O)[C@H](CCCNC(=N)N)NC(=O)[C@@H](CCCNC(=N)N)NC(=O)[C@H](CCCNC(=N)N)NC4=O)cc3C(=O)O)c3ccc(=[N+](C)C)cc-3oc2c1 [TAMRA-cR10]
- localization of the red fluorophore after uptake (HeLa Kyoto cells): cytosolic (and nucleolar) localization

Compound: Brentuximab: fluorescently labeled (Atto488) therapeutic full-length IgG antibody, thiolated and mixed with TNB-R10
- cellular uptake of antibody (HeLa CCL-2 cells; absence of CPP-additive 5, 37° C.): not in the absence of CPP-additive 5
- fluorescent signal in the nucleus (HeLa CCL-2 cells; with CPP-additive 5): could not be observed in the nucleus
- cellular uptake of antibody (HeLa CCL-2 cells; with CPP-additive 5, 4° C.): antibody uptake could also be observed in most cells
- cellular uptake of antibody (HeLa CCL-2 cells; with CPP-additive 5, 37° C.): cellular delivery

Compound: Mal-PEG2-R10-fluorous tag: Mal-PEG2-R10 with a perfluoroalkyl (fluorous) tag on a C-terminal lysine side chain ({Maleimidoacetic acid-AEEA-AEEA}-RRRRRRRRRRK-NH2; not fully specified (residue 11); printed as Mal-PEG2-R10-fluorous tag)
- uptake compared with reference additive (HeLa cells; 2.5 μM additive, 5 μM NLS-mCherry-R10): visually similar to treating cells with 10 μM of Mal-PEG2-R10
- uptake of NLS-mCherry-R10 (HeLa cells; [1]): good NLS-mCherry-R10 uptake

Compound: Maleimidoacetic acid-PEG*-RRRRRRRRRR-Amide ({Maleimidoacetyl-AEEA-AEEA}-RRRRRRRRRR-NH2; SMILES N=C(N)NCCC[C@H](NC(=O)[C@H](CCCNC(=N)N)NC(=O)[C@H](CCCNC(=N)N)NC(=O)[C@H](CCCNC(=N)N)NC(=O)[C@H](CCCNC(=N)N)NC(=O)[C@H](CCCNC(=N)N)NC(=O)[C@H](CCCNC(=N)N)NC(=O)[C@H](CCCNC(=N)N)NC(=O)[C@H](CCCNC(=N)N)NC(=O)[C@H](CCCNC(=N)N)NC(=O)COCCOCCNC(=O)COCCOCCNC(=O)CN1C(=O)C=CC1=O)C(N)=O) [peptide 14]
- uptake of NLS-mCherry-R10 (HeLa cells; [1]): unfavorable uptake of NLS-mCherry

Compound: Maleimidoacetic acid-PEG*-RRRRRRRRRRGGILFF-Amide ({Maleimidoacetyl-AEEA-AEEA}-RRRRRRRRRRGGILFF-NH2; SMILES CC[C@H](C)[C@H](NC(=O)CNC(=O)CNC(=O)[C@H](CCCNC(=N)N)NC(=O)[C@H](CCCNC(=N)N)NC(=O)[C@H](CCCNC(=N)N)NC(=O)[C@H](CCCNC(=N)N)NC(=O)[C@H](CCCNC(=N)N)NC(=O)[C@H](CCCNC(=N)N)NC(=O)[C@H](CCCNC(=N)N)NC(=O)[C@H](CCCNC(=N)N)NC(=O)[C@H](CCCNC(=N)N)NC(=O)[C@H](CCCNC(=N)N)NC(=O)COCCOCCNC(=O)COCCOCCNC(=O)CN1C(=O)C=CC1=O)C(=O)N[C@@H](CC(C)C)C(=O)N[C@@H](Cc1ccccc1)C(=O)N[C@@H](Cc1ccccc1)C(N)=O) [Mal-PEG2-R10-ILFF]
- delivery at decreased concentrations (HeLa cells; 1 μM CPP additive, 2.5 μM NLS-mCherry-R10): Decreasing the treatment concentrations of both the CPP additive and cargo protein is possible
- nucleolar staining vs Mal-PEG2-R10 reference (HeLa cells; 5 μM CPP additive, 5 μM NLS-mCherry-R10, 1 h 37° C.): better nucleolar staining
